Results taken from ChEMBL document CHEMBL1131172 (J Med Chem, 1998).

How the values were obtained:
[1] = tested on: 786-0; assay: inhibition of the growth of renal cancer(786-0) cell line; format: functional; details: Homo sapiens
[2] = tested on: 786-0; assay: Inhibition of the growth of renal cancer(786-0) cell line at 0.01 uM; format: functional; details: Homo sapiens
[3] = tested on: A549; assay: inhibition of the growth of non-small-cell lung cancer (A549/ATCC) cell line; format: functional; details: Homo sapiens
[4] = tested on: A549; assay: Inhibition of the growth of non-small-cell lung cancer (A549/ATCC) cell line at 0.01 uM; format: functional; details: Homo sapiens
[5] = tested on: CAKI-1; assay: inhibition of the growth of renal cancer(CAKI-1) cell line; format: functional; details: Homo sapiens
[6] = tested on: CAKI-1; assay: Inhibition of the growth of renal cancer(CAKI-1) cell line at 0.01 uM; format: functional; details: Homo sapiens
[7] = tested on: DU-145; assay: Inhibition of the growth of prostate cancer(DU-145) cell line at 0.01 uM; format: functional; details: Homo sapiens
[8] = tested on: DU-145; assay: inhibition of the growth of prostate cancer(DU-145) cell line; format: functional; details: Homo sapiens
[9] = tested on: HCT-15; assay: Inhibition of the growth of colon cancer(HCT-15) cell line at 0.01 uM; format: functional; details: Homo sapiens
[10] = tested on: HCT-15; assay: inhibition of the growth of colon cancer(HCT-15) cell line; format: functional; details: Homo sapiens
[11] = tested on: HCT-116; assay: inhibition of the growth of colon cancer(HCT116) cell line; format: functional; details: Homo sapiens
[12] = tested on: HCT-116; assay: Inhibition of the growth of colon cancer(HCT116) cell line at 0.01 uM; format: functional; details: Homo sapiens
[13] = tested on: IGROV-1; assay: inhibition of the growth of ovarian cancer(IGROVI) cell line; format: functional; details: Homo sapiens
[14] = tested on: KM12; assay: inhibition of the growth of colon cancer(KM-12) cell line; format: functional; details: Homo sapiens
[15] = tested on: KM12; assay: Inhibition of the growth of colon cancer(KM-12) cell line at 0.01 uM; format: functional; details: Homo sapiens
[16] = tested on: M14; assay: Inhibition of the growth of melanoma cancer (M14) cell line at 0.01 uM; format: functional; details: Homo sapiens
[17] = tested on: MOLT-4; assay: Inhibition of the growth of leukemia (MOLT-4) cell line; format: functional; details: Homo sapiens
[18] = tested on: NCI/ADR-RES; assay: inhibition of the growth of breast cancer (MCF7/ADR-RES) cell line; format: functional; details: Homo sapiens
[19] = tested on: NCI/ADR-RES; assay: Inhibition of the growth of breast cancer (MCF7/ADR-RES) cell line at 0.01 uM; format: functional; details: Homo sapiens
[20] = tested on: MCF7; assay: Inhibition of the growth of breast cancer (MCF-7) cell line at 0.01 uM; format: functional; details: Homo sapiens
[21] = tested on: M14; assay: inhibition of the growth of melanoma cancer (M14) cell line; format: functional; details: Homo sapiens
[22] = tested on: MDA-N; assay: inhibition of the growth of breast cancer(MDA-N) cell line; format: functional; details: Homo sapiens
[23] = tested on: MDA-N; assay: Inhibition of the growth of breast cancer(MDA-N) cell line at 0.01 uM; format: functional; details: Homo sapiens
[24] = tested on: MDA-MB-435; assay: Inhibition of the growth of breast cancer (MDA-MB-435) cell line at 0.01 uM; format: functional; details: Homo sapiens
[25] = tested on: MDA-MB-435; assay: inhibition of the growth of breast cancer (MDA-MB-435) cell line; format: functional; details: Homo sapiens
[26] = tested on: MCF7; assay: inhibition of the growth of breast cancer (MCF-7) cell line; format: functional; details: Homo sapiens
[27] = tested on: NCI-H460; assay: inhibition of the growth of non-small-cell lung cancer (NCI-H460) cell line; format: functional; details: Homo sapiens
[28] = tested on: NCI-H522; assay: inhibition of the growth of non-small-cell lung cancer (NCI-H522) cell line; format: functional; details: Homo sapiens
[29] = tested on: NCI-H522; assay: Inhibition of the growth of non-small-cell lung cancer (NCI-H522) cell line at 0.01 uM; format: functional; details: Homo sapiens
[30] = tested on: NCI-H322M; assay: inhibition of the growth of non-small-cell lung cancer (NCI-H322M) cell line; format: functional; details: Homo sapiens
[31] = tested on: NCI-H322M; assay: Inhibition of the growth of non-small-cell lung cancer (NCI-H322M) cell line at 0.01 uM; format: functional; details: Homo sapiens
[32] = tested on: NCI-H23; assay: Inhibition of the growth of non-small-cell lung cancer (NCI-H23) cell line; format: functional; details: Homo sapiens
[33] = tested on: OVCAR-8; assay: inhibition of the growth of ovarian cancer(OVCAR-8) cell line; format: functional; details: Homo sapiens
[34] = tested on: NCI-H460; assay: Inhibition of the growth of non-small-cell lung cancer (NCI-H460) cell line at 0.01 uM; format: functional; details: Homo sapiens
[35] = tested on: NCI-H23; assay: Inhibition of the growth of non-small-cell lung cancer (NCI-H23) cell line at 0.01 uM; format: functional; details: Homo sapiens
[36] = tested on: RPMI-8226; assay: Inhibition of the growth of leukemia (RPMI-8226) cell line at 0.01 uM; format: functional; details: Homo sapiens
[37] = tested on: RPMI-8226; assay: Inhibition of the growth of leukemia (RPMI-8226) cell line; format: functional; details: Homo sapiens
[38] = tested on: SF-268; assay: Inhibition of the growth of CNS cancer(SF-268) cell line at 0.01 uM; format: functional; details: Homo sapiens
[39] = tested on: SF-268; assay: inhibition of the growth of CNS cancer(SF-268) cell line; format: functional; details: Homo sapiens
[40] = tested on: SF-295; assay: inhibition of the growth of CNS cancer(SF-295) cell line; format: functional; details: Homo sapiens
[41] = tested on: SF-295; assay: Inhibition of the growth of CNS cancer(SF-295) cell line at 0.01 uM; format: functional; details: Homo sapiens
[42] = tested on: SF-539; assay: Inhibition of the growth of CNS cancer(SF-539) cell line at 0.01 uM; format: functional; details: Homo sapiens
[43] = tested on: SNB-19; assay: inhibition of the growth of CNS cancer(SNB-19) cell line; format: functional; details: Homo sapiens
[44] = tested on: SNB-19; assay: Inhibition of the growth of CNS cancer(SNB-19) cell line at 0.01 uM; format: functional; details: Homo sapiens
[45] = tested on: SF-539; assay: inhibition of the growth of CNS cancer(SF-539) cell line; format: functional; details: Homo sapiens
[46] = tested on: SR; assay: Inhibition of the growth of leukemia(SR) cell line; format: functional; details: Homo sapiens
[47] = tested on: SR; assay: Inhibition of the growth of leukemia(SR) cell line at 0.01 uM; format: functional; details: Homo sapiens
[48] = tested on: SK-MEL-5; assay: inhibition of the growth of melanoma cancer (SK-MEL-5) cell line; format: functional; details: Homo sapiens
[49] = tested on: SK-MEL-5; assay: Inhibition of the growth of melanoma cancer (SK-MEL-5) cell line at 0.01 uM; format: functional; details: Homo sapiens
[50] = tested on: UO-31; assay: inhibition of the growth of renal cancer(UO-31) cell line; format: functional; details: Homo sapiens
[51] = tested on: UO-31; assay: Inhibition of the growth of renal cancer(UO-31) cell line at 0.01 uM; format: functional; details: Homo sapiens
[52] = tested on: IGROV-1; assay: Inhibition of the growth of ovarian cancer(IGROVI) cell line at 0.01 uM; format: functional; details: Homo sapiens
[53] = tested on: MOLT-4; assay: Inhibition of the growth of leukemia (MOLT-4) cell line at 0.01 uM; format: functional; details: Homo sapiens
[54] = tested on: OVCAR-8; assay: Inhibition of the growth of ovarian cancer(OVCAR-8) cell line at 0.01 uM; format: functional; details: Homo sapiens
[55] = target: T1, Bifunctional dihydrofolate reductase-thymidylate synthase (Toxoplasma gondii, UniProt Q07422)
T1 sequence (Q07422 whole entry): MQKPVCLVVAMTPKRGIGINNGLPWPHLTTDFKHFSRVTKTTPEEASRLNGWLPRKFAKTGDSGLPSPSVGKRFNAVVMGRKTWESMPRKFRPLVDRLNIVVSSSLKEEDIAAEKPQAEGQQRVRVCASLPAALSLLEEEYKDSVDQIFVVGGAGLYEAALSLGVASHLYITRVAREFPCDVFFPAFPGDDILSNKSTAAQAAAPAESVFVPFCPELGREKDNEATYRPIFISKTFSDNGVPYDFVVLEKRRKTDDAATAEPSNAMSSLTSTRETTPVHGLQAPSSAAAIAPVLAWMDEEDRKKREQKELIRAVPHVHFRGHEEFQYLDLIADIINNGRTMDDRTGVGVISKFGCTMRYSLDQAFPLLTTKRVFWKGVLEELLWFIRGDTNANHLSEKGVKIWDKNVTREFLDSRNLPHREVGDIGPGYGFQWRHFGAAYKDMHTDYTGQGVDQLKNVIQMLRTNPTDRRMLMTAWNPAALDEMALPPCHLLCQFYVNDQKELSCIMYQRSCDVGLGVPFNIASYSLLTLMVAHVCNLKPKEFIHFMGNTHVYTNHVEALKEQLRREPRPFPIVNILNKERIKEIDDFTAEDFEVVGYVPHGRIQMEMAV
Description: Inhibitory activity against dihydrofolate reductase (DHFR) from Toxoplasma gondii

[56] = target: T2, Dihydrofolate reductase (Pneumocystis carinii, UniProt P16184)
T2 sequence (P16184 whole entry): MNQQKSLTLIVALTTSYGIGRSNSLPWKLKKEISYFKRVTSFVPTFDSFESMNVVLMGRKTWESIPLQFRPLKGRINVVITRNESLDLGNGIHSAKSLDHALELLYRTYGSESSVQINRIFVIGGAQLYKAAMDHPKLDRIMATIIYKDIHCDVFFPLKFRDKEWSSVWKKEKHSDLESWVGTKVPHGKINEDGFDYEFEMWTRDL
Description: Inhibitory activity against dihydrofolate reductase (DHFR) from Pneumocystis carinii

[57] = target: T3, Dihydrofolate reductase (Rattus norvegicus, UniProt Q920D2)
T3 sequence (Q920D2 whole entry): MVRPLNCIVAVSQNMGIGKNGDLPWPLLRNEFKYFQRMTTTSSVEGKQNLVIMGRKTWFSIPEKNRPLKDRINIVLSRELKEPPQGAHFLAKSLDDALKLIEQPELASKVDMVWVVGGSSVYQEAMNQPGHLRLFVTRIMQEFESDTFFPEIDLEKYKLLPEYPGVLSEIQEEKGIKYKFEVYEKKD
Description: Inhibitory activity against dihydrofolate reductase (DHFR) from rat liver

GI50 [1]: < 10 nM | GI50 [3]: < 10 nM | GI50 [8]: < 10 nM | GI50 [10]: < 10 nM | GI50 [11]: < 10 nM | GI50 [17]: < 10 nM | GI50 [25]: < 10 nM | GI50 [26]: < 10 nM | GI50 [27]: < 10 nM | GI50 [28]: < 10 nM | GI50 [30]: < 10 nM | GI50 [32]: < 10 nM | GI50 [33]: < 10 nM | GI50 [37]: < 10 nM | GI50 [48]: < 10 nM | IC50 [56]: 34 nM | IC50 [57]: 4.2 nM
SMILES: COc1ccc(OC)c(N(C)c2ccc3nc(N)nc(N)c3n2)c1
inhibition at 0.01 µM [2]: 55% | inhibition at 0.01 µM [4]: 72% | GI50 [5]: < 10 nM | inhibition at 0.01 µM [6]: 70% | inhibition at 0.01 µM [7]: 57% | inhibition at 0.01 µM [9]: 70% | inhibition at 0.01 µM [12]: 83% | GI50 [13]: < 10 nM | GI50 [14]: < 10 nM | inhibition at 0.01 µM [15]: 55% | inhibition at 0.01 µM [16]: 61% | GI50 [18]: < 10 nM | inhibition at 0.01 µM [19]: 82% | inhibition at 0.01 µM [20]: 58% | GI50 [21]: < 10 nM | GI50 [22]: < 10 nM | inhibition at 0.01 µM [23]: 59% | inhibition at 0.01 µM [24]: 70% | inhibition at 0.01 µM [29]: 67% | inhibition at 0.01 µM [31]: 58% | inhibition at 0.01 µM [34]: 82% | inhibition at 0.01 µM [35]: 78% | inhibition at 0.01 µM [36]: 68% | inhibition at 0.01 µM [38]: 57% | GI50 [39]: < 10 nM | GI50 [40]: < 10 nM | inhibition at 0.01 µM [41]: 69% | inhibition at 0.01 µM [42]: 65% | GI50 [43]: < 10 nM | inhibition at 0.01 µM [44]: 73% | GI50 [45]: < 10 nM | GI50 [46]: < 10 nM | inhibition at 0.01 µM [47]: 68% | inhibition at 0.01 µM [49]: 76% | GI50 [50]: < 10 nM | inhibition at 0.01 µM [51]: 100% | inhibition at 0.01 µM [52]: 66% | inhibition at 0.01 µM [53]: 54% | inhibition at 0.01 µM [54]: 75% | IC50 [55]: 41 nM
